The IC50 is the concentration that gives 50% inhibition.

One assay addresses human PDHK1 (hPDHK1) (Homo sapiens (Human), UniProt Q15118). Description: Inhibitory action of PDHK1 activity in vitro (residual PDH activity after PDHK reaction). The format is biochemical. To be noted: for IC50: PDH/hPDHK1 complex solution, PDHK reaction at room temperature for 45 min, NADH absorbance at 340 nm, read-out: hPDK1 IC50; for inhibition at 0.003 µM: at 3 nmol/L, shown when IC50 value could not be calculated, read-out: hPDHK1 inhibitory rate at the lowest concentration of the test compound. Here is the method:
(§1) The inhibitory action of PDHK activity was assessed indirectly by measuring the residual PDH activity after PDHK reaction in the presence of a test compound.
(Inhibitory Action of PDHK1 Activity)
In the case of human PDHK1 (hPDHK1, NCBI Reference Database Accession number NM_002610.3), a 1.3 kbp fragment encoding this protein was isolated from human liver cDNA by polymerase chain reaction (PCR). Modified hPDHK1 cDNA wherein FLAG-Tag sequence was added to the N terminus was prepared by PCR and ligated to the NdeI/EcoRI site of pET-17b vector (Merck MGaA, model number 69663-3). The recombinant construct was transformed into Escherichia coli DH5a (TOYOBO, model number DNA-903). The recombinant clones were identified, and plasmid DNA was isolated and subjected to the DNA sequence analysis. One clone which had the expected nucleic acid sequence was selected for expression work.
For expression of hPDHK1 activity, Escherichia coli strain BL21(DE3) cells (Merck KGaA, model number 69450-4) were transformed with the pET17b vector containing modified hPDHK1 cDNA. The Escherichia coli were grown to an optical density 0.6 ([…]) at 30° C. Protein expression was induced by the addition of 500 μmol/L isopropyl-β-thiogalactopyranoside. The Escherichia coli were cultured at 20° C. for 17-18 hr and harvested by centrifugation.
The harvested Escherichia coli was resuspended in a suspension buffer (20 mmol/L N-(2-hydroxyethyl)piperazine-N′-2-ethanesulfonic acid-sodium hydroxide (HEPES-NaOH), 500 mmol/L sodium chloride, 1% ethylene glycol, and 0.1% polyoxyethylene-polyoxypropylene block copolymer (Pluronic F-68), complete, EDTA-free (pH 8.0)) and disrupted by a microfluidizer M-110H (MIZUHO INDUSTRIAL CO., LTD.) or ultrasonication. The precipitate was removed by centrifugation and the supernatant was added to DDDDK-tagged Protein PURIFICATION GEL (MBL, model number 3329). DDDDK-tagged Protein PURIFICATION GEL was washed with a washing buffer (20 mmol/L HEPES-NaOH, 500 mmol/L sodium chloride, 1% ethylene glycol, 0.1% pluronic F-68 (pH 8.0)) and the bound protein was eluted with elution buffer 1 (20 mmol/L HEPES-NaOH, 100 μg/mL peptide (amino acid sequence DYKDDDDK) (SEQ ID NO: 1), 500 mmol/L sodium chloride, 1% ethylene glycol, 0.1% pluronic F-68 (pH 8.0)).
The eluted fractions containing FLAG-Tagged protein were pooled, concentrated by an ultrafiltration method, added to a gel filtration column (HiLoad 26/60 Superdex 200 (GE Healthcare, model number 17-1070-01)), and eluted with elution buffer 2 (20 mmol/L HEPES-NaOH, 150 mmol/L sodium chloride, 0.5 mmol/L ethylenediaminetetraacetic acid (EDTA), 1% ethylene glycol, 0.1% pluronic F-68 (pH 8.0)). The eluted fractions were pooled and preserved at −80° C.
0.025 U/mL PDH (porcine heart PDH complex, Sigma P7032) and 0.5 μg/mL hPDHK1 were mixed in an assay buffer (50 mmol/L 3-morpholinopropanesulfonic acid (pH 7.0), 20 mmol/L dipotassium hydrogen phosphate, 60 mmol/L potassium chloride, 2 mmol/L magnesium chloride, 0.4 mmol/L EDTA, 0.2% poloxamer, 2 mmol/L dithiothreitol), and the mixture was incubated at 4° C. overnight to obtain a PDH/hPDHK1 complex solution. In the assay buffer, 0.025 U/mL PDH was mixed and incubated at 4° C. overnight to prepare a PDH solution.
The test compounds were diluted with dimethyl sulfoxide (DMSO). To measure an inhibitory action of the test compound on the PDHK activity in the PDH/hPDHK1 complex solution, PDH/hPDHK1 complex solution (20 μL), test compound (1.5 μL) and 0.353 μmol/L ATP (diluted with assay buffer) (8.5 μL) were added to a 384 well microplate (Greiner Bio-One 781801) and PDHK reaction was performed at room temperature for 45 min (test compound well). DMSO (1.5 μL) was added to control wells instead of test compound. In addition, DMSO (1.5 μL) was added to blank wells instead of the test compound, and PDH solution was added instead of the PDH/hPDHK1 complex solution. […]

The next assay concerns the target human PDHK2 (hPDHK2) (Homo sapiens (Human), UniProt Q15119). Description: Inhibitory action of PDHK2 activity in vitro (residual PDH activity after PDHK reaction). Type of assay: biochemical. The settings on record: for IC50: PDH/hPDHK2 complex solution, PDHK reaction at room temperature for 45 min, NADH absorbance at 340 nm, read-out: kPDK2 IC50. Here is the method: as §1
(Inhibitory Action of PDHK2 Activity)
In the case of human PDHK2 (hPDHK2, NCBI Reference Database Accession number NM_002611.4), modified hPDHK2 cDNA wherein FLAG-Tag sequence was added to the N terminus of hPDHK2 cDNA clone (pReceiver-M01/PDK2-GeneCopoeia) as the base was prepared by PCR and ligated to the NdeI/EcoRI site of pET-17b vector. The recombinant construct was transformed into Escherichia coli DH5a. The recombinant clones were identified, and plasmid DNA was isolated and subjected to the DNA sequence analysis. One clone which had the expected nucleic acid sequence was selected for expression work.
For expression of hPDHK2 activity, Escherichia coli strain BL21(DE3) cells were transformed with the pET17b vector containing modified hPDHK2 cDNA. The Escherichia coli were grown to an optical density 0.6 ([…]) at 30° C. Protein expression was induced by the addition of 500 μmol/L isopropyl-β-thiogalactopyranoside. The Escherichia coli were cultured at 20° C. for 17-18 hr and harvested by centrifugation. The harvested Escherichia coli was resuspended in a suspension buffer (20 mmol/L HEPES-NaOH, 500 mmol/L sodium chloride, 1% ethylene glycol, 0.1% pluronic F-68 (pH 8.0), cOmplete, EDTA-free (pH 8.0)), and disrupted by a microfluidizer. The precipitate was removed by centrifugation and the supernatant was added to DDDDK-tagged Protein PURIFICATION GEL. DDDDK-tagged Protein PURIFICATION GEL was washed with a washing buffer (20 mmol/L HEPES-NaOH, 500 mmol/L sodium chloride, 1% ethylene glycol, 0.1% pluronic F-68 (pH 8.0)) and the bound protein was eluted with elution buffer 1 (20 mmol/L HEPES-NaOH, 100 μg/mL peptide (amino acid sequence DYKDDDDK) (SEQ ID NO: 1), 500 mmol/L sodium chloride, 1% ethylene glycol, 0.1% pluronic F-68 (pH 8.0)). The eluted fractions containing FLAG-Tagged protein were pooled, concentrated by an ultrafiltration method, added to a gel filtration column (HiLoad 26/60 Superdex 200), and eluted with elution buffer 2 (20 mmol/L HEPES-NaOH, 150 mmol/L sodium chloride, 0.5 mmol/L ethylenediaminetetraacetic acid (EDTA), 1% ethylene glycol, 0.1% pluronic F-68 (pH 8.0)). The eluted fractions were pooled and preserved at −80° C.
0.025 U/mL PDH and 0.5 μg/mL hPDHK2 were mixed in an assay buffer (50 mmol/L 3-morpholinopropanesulfonic acid (pH 7.0), 20 mmol/L dipotassium hydrogen phosphate, 60 mmol/L potassium chloride, 2 mmol/L magnesium chloride, 0.4 mmol/L EDTA, 0.2% poloxamer, 2 mmol/L dithiothreitol), and the mixture was incubated at 4° C. overnight to obtain a PDH/hPDHK2 complex solution. In the assay buffer, 0.025 U/mL PDH was mixed and incubated at 4° C. overnight to prepare a PDH solution.
The test compounds were diluted with DMSO. To measure an inhibitory action of the test compound on the PDHK activity in the PDH/hPDHK2 complex solution, PDH/hPDHK2 complex solution (20 μL), test compound (1.5 μL) and 1.06 μmol/L ATP (diluted with assay buffer) (8.5 μL) were added to a 384 well microplate and PDHK reaction was performed at room temperature for 45 min (test compound well). DMSO (1.5 μL) was added to control wells instead of test compound. In addition, DMSO (1.5 μL) was added to blank wells instead of the test compound, and PDH solution was added instead of the PDH/hPDHK2 complex solution. To measure an inhibitory action of the test compound on the PDHK activity inherent in the PDH solution, a test compound was added and the PDH solution instead of the PDH/hPDHK2 complex solution was added to a blank+test compound well.
Then, 10 μL of substrates (5 mmol/L sodium pyruvate, 5 mmol/L Coenzyme A, 12 mmol/L NAD, 5 mmol/L thiamine pyrophosphate, diluted with assay buffer) were added. The mixture was incubated at room temperature for 90 min, and the residual PDH activity was measured. […]

Sequence of human PDHK1 (hPDHK1) (Q15118 29-436): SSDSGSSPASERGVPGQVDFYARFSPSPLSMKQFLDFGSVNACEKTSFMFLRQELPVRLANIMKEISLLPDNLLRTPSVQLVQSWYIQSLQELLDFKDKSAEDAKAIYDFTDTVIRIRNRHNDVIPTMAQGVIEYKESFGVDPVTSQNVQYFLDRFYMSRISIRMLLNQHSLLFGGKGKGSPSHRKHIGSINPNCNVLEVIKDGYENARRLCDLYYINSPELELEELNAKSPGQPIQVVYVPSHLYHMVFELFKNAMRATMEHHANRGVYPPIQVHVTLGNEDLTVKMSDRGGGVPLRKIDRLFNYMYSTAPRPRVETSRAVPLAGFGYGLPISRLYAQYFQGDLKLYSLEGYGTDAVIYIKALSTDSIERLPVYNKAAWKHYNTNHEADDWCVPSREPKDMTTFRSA

For the molecule `C[C@H]1CN(C(=O)c2ccc(C#N)c(-n3cc(Cl)cn3)c2)Cc2cnc([C@@](C)(O)C(F)(F)F)n21` [Example 85], at human PDHK1 (hPDHK1), the half-maximal inhibitory concentration (IC50) was less than 3 nM and the inhibition at 0.003 µM was 49%. The IC50 on human PDHK2 (hPDHK2) is 6 nM.

As to `C[C@H]1CN(C(=O)c2ccnc(C3CC3)c2)Cc2cnc([C@@](C)(O)C(F)(F)F)n21` [Example 96], the 50% inhibitory concentration (IC50) at human PDHK1 (hPDHK1) and on human PDHK2 (hPDHK2) was 8 nM throughout.

As for `C[C@H]1CN(C(=O)c2cc(C3CC3)n[nH]2)Cc2onc([C@@](C)(O)C(F)(F)F)c21` [Example 111, (3-cyclopropyl-1H-pyrazol-5-yl)((R)-4-methyl-3-((R)-1,1,1-trifluoro-2-hydroxypropan-2-yl)-4,7-dihydroisoxazolo[5,4-c]pyridin-6(5H)-yl)methanone], the IC50 on human PDHK1 (hPDHK1) is 3 nM; at human PDHK2 (hPDHK2), 6 nM.

Take `C[C@H]1CN(C(=O)c2ccc(F)cc2C2CC2)Cc2cnc([C@@](C)(O)C(F)(F)F)n21` [Example 27]: the IC50 at human PDHK1 (hPDHK1) stood at 9 nM; on human PDHK2 (hPDHK2), 8 nM.

Regarding `C[C@H]1CN(C(=O)c2cc(C3(C)CC3)nn2C)Cc2onc([C@@](C)(O)C(F)(F)F)c21` [Example 118], the IC50 on human PDHK1 (hPDHK1) and on human PDHK2 (hPDHK2) was 4 nM throughout.

In the case of `C[C@H]1CN(C(=O)c2ccnc(-c3ccc(C#N)cc3F)c2)Cc2cnc([C@@](C)(O)C(F)(F)F)n21` [Example 62], the IC50 on human PDHK1 (hPDHK1) stood at 3 nM; at human PDHK2 (hPDHK2), 4 nM.

For the molecule `C[C@H]1CN(C(=O)c2cc(-c3ccc(C#N)cc3)n(C)n2)Cc2cnc([C@@](C)(O)C(F)(F)F)n21` [Example 33], the 50% inhibitory concentration (IC50) on human PDHK1 (hPDHK1) stood at 12 nM; at human PDHK2 (hPDHK2), 16 nM.

In the case of `C[C@H]1CN(C(=O)c2ccc(C3CC3)nc2)Cc2cnc([C@@](C)(O)C(F)(F)F)n21` [Example 30], the IC50 stood at 20 nM at human PDHK1 (hPDHK1) and 13 nM on human PDHK2 (hPDHK2).

Take `C[C@H]1CN(C(=O)c2ccc(C3CC3)cc2)Cc2cnc([C@@](C)(O)C(F)(F)F)n21` [Example 18]: the IC50 at human PDHK1 (hPDHK1) and at human PDHK2 (hPDHK2) was 7 nM in each case.

Turning to `C[C@H]1CN(C(=O)c2ccnn2C2CC2)Cc2cnc([C@@](C)(O)C(F)(F)F)n21` [Example 32], the IC50 on human PDHK1 (hPDHK1) was found to be 13 nM; on human PDHK2 (hPDHK2) it was 10 nM.

Regarding `C[C@H]1CN(C(=O)c2ccc3nn(C)cc3c2)Cc2cnc([C@@](C)(O)C(F)(F)F)n21` [Example 12], the half-inhibitory concentration (IC50) at human PDHK1 (hPDHK1) was determined as 8 nM; at human PDHK2 (hPDHK2), 10 nM.

For the molecule `C[C@H]1CN(C(=O)c2n[nH]c3ccccc23)Cc2onc([C@@](C)(O)C(F)(F)F)c21` [Example 101], at human PDHK1 (hPDHK1), the IC50 was less than 3 nM and the inhibition at 0.003 µM was 69%. In addition, the IC50 on human PDHK2 (hPDHK2) came to 4 nM.

As to `C[C@H]1CN(C(=O)C2(C)CN(C3CC(F)(F)C3)C2)Cc2cnc([C@@](C)(O)C(F)(F)F)n21` [Example 91], the results for the IC50 at human PDHK1 (hPDHK1) and at human PDHK2 (hPDHK2) were 49 nM and 28 nM, respectively.

For the molecule `C[C@H]1CN(C(=O)c2cc3ccccc3o2)Cc2cnc([C@@](C)(O)C(F)(F)F)n21` [Example 13], the IC50 on human PDHK1 (hPDHK1) turned out to be 29 nM; at human PDHK2 (hPDHK2), 36 nM.

Consider `C[C@H]1CN(C(=O)c2cnc(-c3ccccc3)nc2)Cc2cnc([C@@](C)(O)C(F)(F)F)n21` [Example 56], for which the IC50 on human PDHK1 (hPDHK1) and on human PDHK2 (hPDHK2) was 10 nM in each case.

With `C[C@H]1CN(C(=O)c2cc(C3CC3)nn2C)Cc2cnc([C@@](C)(O)C(F)(F)F)n21` [Example 14], at human PDHK1 (hPDHK1), the IC50 was less than 3 nM and the inhibition at 0.003 µM was 68%. Moreover, the IC50 on human PDHK2 (hPDHK2) was less than 3 nM. For the same molecule, the “hPDHK2 inhibitory rate at the lowest concentration of the test compound” value at human PDHK2 (hPDHK2) (lowest concentration of the test compound in the assay (<3 nmol/L), shown when IC50 value could not be calculated) is on record as 57%.

Consider `C[C@H]1CN(C(=O)c2ncccc2-c2ccc(F)cc2)Cc2cnc([C@@](C)(O)C(F)(F)F)n21` [Example 39], for which the IC50 at human PDHK1 (hPDHK1) came out at 46 nM; at human PDHK2 (hPDHK2), 18 nM.

On to `C[C@H]1CN(C(=O)c2ccnn2C2CC2)Cc2onc([C@@](C)(O)C(F)(F)F)c21` [Example 109], for which, at human PDHK1 (hPDHK1), the IC50 was less than 3 nM and the inhibition at 0.003 µM is 53%. For the same molecule, the IC50 at human PDHK2 (hPDHK2) amounted to 5 nM.

For `C[C@H]1CN(C(=O)c2cc3n(n2)CCO3)Cc2onc([C@@](C)(O)C(F)(F)F)c21` [Example 99], the half-inhibitory concentration (IC50) amounted to 8 nM on human PDHK1 (hPDHK1) and 12 nM on human PDHK2 (hPDHK2).

Source of the values: patent US10800784B2, “Nitrogen-containing heterocyclic amide compound and pharmaceutical use thereof” (Japan Tobacco Inc., priority 2018, dated 2020).
